Consider ten molecules from ChEMBL document CHEMBL1142009, “Efficient synthesis of bicyclic oxazolino- and thiazolino[3,2-c]pyrimidine-5,7-diones and its application to the synthesis of GnRH antagonists” (Bioorg Med Chem Lett, 2005).

The target in this experiment is T1, Gonadotropin-releasing hormone receptor (Homo sapiens, UniProt P30968).
T1 sequence (P30968 whole entry): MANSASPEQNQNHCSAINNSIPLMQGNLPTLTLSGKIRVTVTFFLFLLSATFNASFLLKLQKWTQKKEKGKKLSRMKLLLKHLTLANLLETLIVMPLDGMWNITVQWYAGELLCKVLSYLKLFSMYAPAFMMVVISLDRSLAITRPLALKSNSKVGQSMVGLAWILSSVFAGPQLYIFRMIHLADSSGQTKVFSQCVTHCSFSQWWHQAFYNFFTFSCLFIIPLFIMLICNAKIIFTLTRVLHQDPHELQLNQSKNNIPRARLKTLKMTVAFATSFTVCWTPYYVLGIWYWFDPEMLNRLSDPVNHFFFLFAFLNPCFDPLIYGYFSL
As to the kind of experiment: Binding affinity was determined against human gonadotropin-releasing hormone receptor.

The molecule `COc1cccc(-c2c3n(c(=O)n(CCNCc4ccccc4)c2=O)[C@@H](c2ccccc2)CO3)c1F` registered an inhibition constant Ki of 460 nM. The same measure for `N[C@@H](Cn1c(=O)c(-c2ccccc2F)c2n(c1=O)C(c1ccccc1)CS2)c1ccccc1` (stereo not given in full): 110 nM. In the case of `COc1cccc(-c2c3n(c(=O)n(CC(N)c4ccccc4)c2=O)C(c2ccccc2)CO3)c1` (stereo not given) it was 870 nM. In the case of `NC(Cn1c(=O)c(-c2ccccc2Cl)c2n(c1=O)C(c1ccccc1F)CS2)c1ccccc1` (stereo not given) it was 93 nM; in that of `COc1cccc(-c2c3n(c(=O)n(CC(N)c4ccccc4)c2=O)C(c2ccccc2F)CS3)c1Cl` (stereo not given), 4.5 nM. For the molecule `NC(Cn1c(=O)c(-c2ccccc2F)c2n(c1=O)C(c1ccccc1)CO2)c1ccccc1` (stereo not given), the Ki was determined as 700 nM. In the case of `NC(Cn1c(=O)c(-c2ccccc2F)c2n(c1=O)C(c1ccccc1F)CO2)c1ccccc1` (stereo not given) it was 230 nM. In the case of `COc1cccc(-c2c3n(c(=O)n(CC(N)c4ccccc4)c2=O)C(c2ccccc2F)CS3)c1F` (stereo not given) it was 40 nM; in that of `NC(Cn1c(=O)c(-c2ccccc2F)c2n(c1=O)C(c1ccccc1F)CS2)c1ccccc1` (stereo not given), 220 nM; in that of `COc1cccc(-c2c3n(c(=O)n(CC(N)c4ccccc4)c2=O)C(c2ccccc2)CO3)c1F` (stereo not given), 125 nM.
